Assay results: the supplement of paper PMC8671470

Columns and labels:
Conditions in all cases: 72 h
HL-60 [1] = assay: area under dose-response curve (viability, 1 nM-10 uM) (fraction (0-1)); higher = more sensitive
Summary of the method: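 For each screen, HL-60 cells in RPMI 1640 with 10% FBS carried either DMSO or 100 nM of one of three metabolic inhibitors while the full library was applied at five tenfold concentrations, 1–10,000 nM, in duplicate. Plates were 384-well and were kept 72 h at 37 °C, 5% CO2. Viability, measured by CellTiter-Glo, was normalised to wells with DMSO and with 10 μM proteasome inhibitor. Where area under the curve appears, it was fitted by four-parameter log-logistic models in drc and PharmacoGx.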

MOLM-13 [2] = tested on: MOLM-13
Summary of the method: (§1)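 Each of fifteen myeloid leukaemia cell lines was seeded in RPMI 1640 at a density titrated to its linear growth range. The cells were incubated for 72 h at 37 °C and 5% CO2 with compounds at five tenfold doses from 1 to 10,000 nM, in duplicate. After ATP luminescence was normalised to vehicle and to a positive control at 10 µM, four-parameter log-logistic curves were fitted. These curves gave the IC50.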

HL-60 [3] = tested on: HL-60
Summary of the method: as §1

MV4-11 [4] = tested on: MV4-11
Summary of the method: as §1

Mono-Mac-6 [5] = tested on: Mono-Mac-6
Summary of the method: as §1

KU-812 [6] = tested on: KU-812
Summary of the method: as §1

KCL-22 [7] = tested on: KCL-22
Summary of the method: as §1

BV-173 [8] = tested on: BV-173
Summary of the method: as §1

KG-1 [9] = tested on: KG-1
Summary of the method: as §1

ML-2 [10] = tested on: ML-2
Summary of the method: as §1

THP-1 [11] = tested on: THP-1
Summary of the method: as §1

NOMO-1 [12] = tested on: NOMO-1
Summary of the method: as §1

HEL [13] = tested on: HEL
Summary of the method: as §1

K-562 = tested on: K-562
Summary of the method: as §1

SHI-1 [14] = tested on: SHI-1
Summary of the method: as §1

LAMA-84 [15] = tested on: LAMA-84
Summary of the method: as §1

MOLM-13 [16] = assay: cell viability (% survival relative to DMSO control, bortezomib = 0%); higher = less cytotoxic
Summary of the method: (§2)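 Percent survival figures are means of duplicate wells. They were obtained by CellTiter-Glo luminescence after 10 AML and 5 CML cell lines spent 72 h at 37 °C with 5% CO2 in 384-well plates with compounds at 1, 10, 100, 1000 or 10000 nM. Vehicle was set to 100% and a 10 µM positive control to 0%.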

HL-60 [17] = assay: as above
Summary of the method: as §2

MV4-11 [18] = assay: as above
Summary of the method: as §2

Mono-Mac-6 [19] = assay: as above
Summary of the method: as §2

KU-812 [20] = assay: as above
Summary of the method: as §2

KCL-22 [21] = assay: as above
Summary of the method: as §2

BV-173 [22] = assay: as above
Summary of the method: as §2

KG-1 [23] = assay: as above
Summary of the method: as §2

ML-2 [24] = assay: as above
Summary of the method: as §2

THP-1 [25] = assay: as above
Summary of the method: as §2

NOMO-1 [26] = assay: as above
Summary of the method: as §2

HEL [27] = assay: as above
Summary of the method: as §2

SHI-1 [28] = assay: as above
Summary of the method: as §2

LAMA-84 [29] = assay: as above
Summary of the method: as §2

**Q.** Which “area under dose-response curve” value (HL-60 [1]; co-treatment: AZD3965 100 nM) does the source give for `Cc1coc2c1C(=O)C(=O)c1c-2ccc2c1CCCC2(C)C` [Tanshinone IIA] here?
**A.** < 0.0301

**Q.** What about the “area under dose-response curve” value (HL-60 [1]; co-treatment: DMSO vehicle) of the same compound?
**A.** < 0.0301

**Q.** What about the “area under dose-response curve” value (HL-60 [1]; co-treatment: GSK2194069 100 nM) of the same compound?
**A.** < 0.0301

**Q.** What about the “area under dose-response curve” value (HL-60 [1]; co-treatment: pictilisib 100 nM) of the same compound?
**A.** < 0.0301

**Q.** What about the “IC50 (cell viability)” value (MOLM-13 [2]) of the same compound?
**A.** > 10 µM

**Q.** And the “IC50 (cell viability)” value (HL-60 [3])?
**A.** > 10 µM

**Q.** What about the “IC50 (cell viability)” value (MV4-11 [4]) of the same compound?
**A.** > 10 µM

**Q.** And the “IC50 (cell viability)” value (Mono-Mac-6 [5])?
**A.** > 10 µM

**Q.** And the “IC50 (cell viability)” value (KU-812 [6])?
**A.** > 10 µM

**Q.** And the “IC50 (cell viability)” value (KCL-22 [7])?
**A.** > 10 µM

**Q.** What about the “IC50 (cell viability)” value (BV-173 [8]) of the same compound?
**A.** > 10 µM

**Q.** And the “IC50 (cell viability)” value (KG-1 [9])?
**A.** > 10 µM

**Q.** What about the “IC50 (cell viability)” value (ML-2 [10]) of the same compound?
**A.** > 10 µM

**Q.** And the “IC50 (cell viability)” value (THP-1 [11])?
**A.** > 10 µM

**Q.** And the “IC50 (cell viability)” value (NOMO-1 [12])?
**A.** > 10 µM

**Q.** What about the “IC50 (cell viability)” value (HEL [13]) of the same compound?
**A.** > 10 µM

**Q.** And the “IC50 (cell viability)” value (K-562)?
**A.** > 10 µM

**Q.** What about the “IC50 (cell viability)” value (SHI-1 [14]) of the same compound?
**A.** > 10 µM

**Q.** And the “IC50 (cell viability)” value (LAMA-84 [15])?
**A.** > 10 µM

**Q.** What about the cell viability (MOLM-13 [16]; 1 nM) of the same compound?
**A.** 87.8%

**Q.** What about the cell viability (MOLM-13 [16]; 10 nM) of the same compound?
**A.** 90.9%

**Q.** And the cell viability (MOLM-13 [16]; 100 nM)?
**A.** 106%

**Q.** And the cell viability (MOLM-13 [16]; 1000 nM)?
**A.** 101%

**Q.** What about the cell viability (MOLM-13 [16]; 10000 nM) of the same compound?
**A.** 89.6%

**Q.** What about the cell viability (HL-60 [17]; 1 nM) of the same compound?
**A.** 113%

**Q.** And the cell viability (HL-60 [17]; 10 nM)?
**A.** 96.6%

**Q.** What about the cell viability (HL-60 [17]; 100 nM) of the same compound?
**A.** 95.1%

**Q.** And the cell viability (HL-60 [17]; 1000 nM)?
**A.** 98.7%

**Q.** What about the cell viability (HL-60 [17]; 10000 nM) of the same compound?
**A.** 79.3%

**Q.** And the cell viability (MV4-11 [18]; 1 nM)?
**A.** 91.9%

**Q.** And the cell viability (MV4-11 [18]; 10 nM)?
**A.** 100%

**Q.** And the cell viability (MV4-11 [18]; 100 nM)?
**A.** 93.1%

**Q.** And the cell viability (MV4-11 [18]; 1000 nM)?
**A.** 101%

**Q.** What about the cell viability (MV4-11 [18]; 10000 nM) of the same compound?
**A.** 80.3%

**Q.** And the cell viability (Mono-Mac-6 [19]; 1 nM)?
**A.** 90.9%

**Q.** What about the cell viability (Mono-Mac-6 [19]; 10 nM) of the same compound?
**A.** 99%

**Q.** What about the cell viability (Mono-Mac-6 [19]; 100 nM) of the same compound?
**A.** 102%

**Q.** What about the cell viability (Mono-Mac-6 [19]; 1000 nM) of the same compound?
**A.** 91.1%

**Q.** What about the cell viability (Mono-Mac-6 [19]; 10000 nM) of the same compound?
**A.** 87.7%

**Q.** And the cell viability (KU-812 [20]; 1 nM)?
**A.** 89.8%

**Q.** What about the cell viability (KU-812 [20]; 10 nM) of the same compound?
**A.** 95.2%

**Q.** And the cell viability (KU-812 [20]; 100 nM)?
**A.** 93.1%

**Q.** And the cell viability (KU-812 [20]; 1000 nM)?
**A.** 106%

**Q.** And the cell viability (KU-812 [20]; 10000 nM)?
**A.** 86.2%

**Q.** What about the cell viability (KCL-22 [21]; 1 nM) of the same compound?
**A.** 114%

**Q.** And the cell viability (KCL-22 [21]; 10 nM)?
**A.** 98.8%

**Q.** And the cell viability (KCL-22 [21]; 100 nM)?
**A.** 107%

**Q.** What about the cell viability (KCL-22 [21]; 1000 nM) of the same compound?
**A.** 105%

**Q.** What about the cell viability (KCL-22 [21]; 10000 nM) of the same compound?
**A.** 59.9%

**Q.** And the cell viability (BV-173 [22]; 1 nM)?
**A.** 91.9%

**Q.** And the cell viability (BV-173 [22]; 10 nM)?
**A.** 103%

**Q.** And the cell viability (BV-173 [22]; 100 nM)?
**A.** 105%

**Q.** What about the cell viability (BV-173 [22]; 1000 nM) of the same compound?
**A.** 97.3%

**Q.** And the cell viability (BV-173 [22]; 10000 nM)?
**A.** 87.7%

**Q.** And the cell viability (KG-1 [23]; 1 nM)?
**A.** 106%

**Q.** And the cell viability (KG-1 [23]; 10 nM)?
**A.** 97.7%

**Q.** And the cell viability (KG-1 [23]; 100 nM)?
**A.** 94.8%

**Q.** And the cell viability (KG-1 [23]; 1000 nM)?
**A.** 102%

**Q.** What about the cell viability (KG-1 [23]; 10000 nM) of the same compound?
**A.** 76.6%

**Q.** What about the cell viability (ML-2 [24]; 1 nM) of the same compound?
**A.** 106%

**Q.** What about the cell viability (ML-2 [24]; 10 nM) of the same compound?
**A.** 111%

**Q.** And the cell viability (ML-2 [24]; 100 nM)?
**A.** 103%

**Q.** What about the cell viability (ML-2 [24]; 1000 nM) of the same compound?
**A.** 101%

**Q.** What about the cell viability (ML-2 [24]; 10000 nM) of the same compound?
**A.** 77.6%

**Q.** What about the cell viability (THP-1 [25]; 1 nM) of the same compound?
**A.** 98.4%

**Q.** What about the cell viability (THP-1 [25]; 10 nM) of the same compound?
**A.** 110%

**Q.** And the cell viability (THP-1 [25]; 100 nM)?
**A.** 104%

**Q.** And the cell viability (THP-1 [25]; 1000 nM)?
**A.** 92.4%

**Q.** And the cell viability (THP-1 [25]; 10000 nM)?
**A.** 62.5%

**Q.** What about the cell viability (NOMO-1 [26]; 1 nM) of the same compound?
**A.** 103%

**Q.** And the cell viability (NOMO-1 [26]; 10 nM)?
**A.** 104%

**Q.** What about the cell viability (NOMO-1 [26]; 100 nM) of the same compound?
**A.** 102%

**Q.** What about the cell viability (NOMO-1 [26]; 1000 nM) of the same compound?
**A.** 102%

**Q.** What about the cell viability (NOMO-1 [26]; 10000 nM) of the same compound?
**A.** 91.9%

**Q.** What about the cell viability (HEL [27]; 1 nM) of the same compound?
**A.** 91%

**Q.** What about the cell viability (HEL [27]; 10 nM) of the same compound?
**A.** 100%

**Q.** What about the cell viability (HEL [27]; 100 nM) of the same compound?
**A.** 107%

**Q.** What about the cell viability (HEL [27]; 1000 nM) of the same compound?
**A.** 111%

**Q.** What about the cell viability (HEL [27]; 10000 nM) of the same compound?
**A.** 97.9%

**Q.** And the cell viability (SHI-1 [28]; 1 nM)?
**A.** 106%

**Q.** And the cell viability (SHI-1 [28]; 10 nM)?
**A.** 98.5%

**Q.** And the cell viability (SHI-1 [28]; 100 nM)?
**A.** 98.8%

**Q.** And the cell viability (SHI-1 [28]; 1000 nM)?
**A.** 107%

**Q.** And the cell viability (SHI-1 [28]; 10000 nM)?
**A.** 96.1%

**Q.** What about the cell viability (LAMA-84 [29]; 1 nM) of the same compound?
**A.** 102%

**Q.** And the cell viability (LAMA-84 [29]; 10 nM)?
**A.** 97.7%

**Q.** What about the cell viability (LAMA-84 [29]; 100 nM) of the same compound?
**A.** 98.5%

**Q.** And the cell viability (LAMA-84 [29]; 1000 nM)?
**A.** 99.6%

**Q.** What about the cell viability (LAMA-84 [29]; 10000 nM) of the same compound?
**A.** 102%
